Results: patent US7429612B2, “Indoline compound and medicinal use thereof” (Kyoto Pharmaceutical Industries, Ltd., priority 2002, dated 2008)
Structures can show the parent of a compound that is named as a salt.

What was measured:
hepatic ACAT = test: Hepatic ACAT inhibitory activity (rabbit liver microsomes, [1-14C]-oleoyl CoA); assay type: biochemical, Japanese white rabbits; conditions: Concentration: 10^-6 M; inhibition of cholesteryl oleate production vs control
Protocol: A high cholesterol feed [a feed added with cholesterol (1%), Clea Japan, Inc.] was fed to male Japanese white rabbits weighing 2-2.5 kg at 100 g per day and the rabbits were bred for 4 weeks. The rabbits were killed by bleeding under anesthesia and liver was removed. The liver was homogenated, and the homogenate was centrifuged at 4° C. and 10,000 rpm for 15 min. The obtained supernatant was further centrifuged at 4° C. and 41,000 rpm for 60 minutes to give microsomal fractions. The microsomal suspension as an enzyme sample, dimethyl sulfoxide (DMSO, […]) or a test compound dissolved in DMSO (test compound solution 3 μl), and reaction substrate [1-^14C]-oleoyl CoA were added to 0.15 M phosphate buffer to the total amount of 300 μl. After incubation at 37° C. for 20 minutes, a chloroform-methanol mixture was added to stop the reaction. Water was added thereto and mixed, and the chloroform layer was separated. The solvent was evaporated to dryness, and the residue was redissolved in n-hexane. The mixture was subjected to thin layer chromatography using a silica gel plate. The spots of cholesteryl oleate on the silica gel plate were scraped, and quantitatively assayed on lo a liquid scintillation counter.

[1] = test system: THP-1 cell-derived macrophages; test: THP-1 cell-derived macrophage foam cell formation suppressing effect (cholesterol ester accumulation inhibitory effect); assay type: cell-based; conditions: Concentration: 10^-6 M, acetyl LDL, 3 days culture; for inhibition at 1 µM: Homo sapiens, THP-1, 72 h, read-out: foam cell formation inhibitory rate (%)
Protocol: THP-1 (Dainippon Pharmaceutical Co., Ltd.) cells were passage cultured in RPMI-1640 medium supplemented with 10% fetal bovine serum (FBS), and the cells of passages 6-13 after purchase were used. The cells were suspended in FBS-containing RPMI-1640 medium to give a suspension having a concentration of 4×10^5 cells/mL. The cell suspension was inoculated to a 12 well microplate by 1 mL, and treated with phorbol 12-myristate 13-acetate (PMA, 200 nM) as a differentiation inducing agent into macrophage. Then acetyl LDL 400 μg/mL prepared separately from plasma-derived LDL of genetically hyperlipidemia rabbit (KHC rabbit, Japan Laboratory Animals, Inc.) was added. In addition, a test compound dissolved in DMSO and diluted with FBS-containing RPMI-1640 medium or a control solvent was added. After culture in a carbon dioxide incubator for 3 days, the cells were washed with phosphate buffered physiological saline (pH 7.0), and the lipid was extracted with n-hexane/isopropanol (3:2). The cells were dissolved in 1M-NaOH and the protein amount was measured. The free cholesterol and cholesterol ester in a lipid extraction sample was measured by the method of Kunitomo et al. (1983). The cholesterol ester was compared between the control cell and the test compound-treated cells, and the cholesterol ester accumulation inhibitory rate of the test compound was calculated.

Row | Structure (SMILES) | Hepatic ACAT inhibitory ratio (%) (hepatic ACAT) | inhibition at 1 µM [1] [%] | foam cell formation inhibitory rate (%) [1] [%]
1 | CCCCCCC(C)(C)C(=O)Nc1c(C)c2c(c(NS(=O)(=O)C(C)C)c1C)NCC2 [Example 24, N-[4,6-dimethyl-7-(2-propanesulfonylamino)indolin-5-yl]-2,2-dimethyloctanamide] | 95.7 | 90.5 | 
2 | CCCCCCCCN1CCc2c(C)c(NS(=O)(=O)NC(=O)OC)c(C)c(NC(=O)C(C)(C)C)c21 [Example 4, N-[5-(N-methoxycarbonylsulfamoylamino)-4,6-dimethyl-1-octylindolin-7-yl]-2,2-dimethylpropanamide] | 75.8 |  | 
3 | CCCCCCCCCC(C)(C)C(=O)Nc1c(C)c2c(c(NS(C)(=O)=O)c1C)N(C)CC2 [Example 9, N-(7-methanesulfonylamino-1,4,6-trimethylindolin-5-yl)-2,2-dimethylundecanamide] |  | 70.9 | 
4 | Cc1c2c(c(NC(=O)C(C)(C)C)c(C)c1NS(N)(=O)=O)N(C1CCCC1)CC2.Cl [Example 43, N-(1-cyclopentyl-4,6-dimethyl-5-sulfamoylaminoindolin-7-yl)-2,2-dimethylpropanamide hydrochloride] | 90.9 | 58.7 | 
5 | Cc1c2c(c(NC(=O)C(C)(C)C)c(C)c1NS(N)(=O)=O)N(CCC(C)C)CC2.Cl [Example 20, N-[1-(3-methylbutyl)-4,6-dimethyl-5-sulfamoylaminoindolin-7-yl]-2,2-dimethylpropanamide hydrochloride] | 95.7 | 74.7 | 
6 | Cc1c2c(c(NC(=O)C(C)(C)C)c(C)c1NS(N)(=O)=O)N(CC(C)C)CC2.Cl [Example 21, N-[1-(2-methylpropyl)-4,6-dimethyl-5-sulfamoylaminoindolin-7-yl]-2,2-dimethylpropanamide hydrochloride] | 92.7 | 77.1 | 
7 | CCCCCCCCN1CCc2c(C)c(CNS(C)(=O)=O)c(C)c(NC(=O)C(C)(C)C)c21.Cl [Example 10, N-(5-methanesulfonylaminomethyl-4,6-dimethyl-1-octylindolin-7-yl)-2,2-dimethylpropanamide hydrochloride] | 87.3 |  | 
8 | CCCCCCCCCC(C)(C)C(=O)Nc1c(C)c2c(c(NS(=O)(=O)C(C)C)c1C)NCC2.Cl [Example 23, N-[4,6-dimethyl-7-(2-propanesulfonylamino)indolin-5-yl]-2,2-dimethylundecanamide hydrochloride] | 96.2 | 90.5 | 
9 | CCCN1c2c(c(C)c(NS(N)(=O)=O)c(C)c2NC(=O)C(C)(C)C)CC1COC.Cl (centres unmarked) [Example 50, N-(2-methoxymethyl-4,6-dimethyl-1-propyl-5-sulfamoylaminoindolin-7-yl)-2,2-dimethylpropanamide hydrochloride] | 86.2 | 73.6 | 
10 | CCCCCCCCN1CCc2c(C)c([N+](=O)[O-])c(C)c(NC(=O)C(C)(C)C)c21 [Example 1, N-(4,6-dimethyl-5-nitro-1-octylindolin-7-yl)-2,2-dimethylpropanamide] | 97.4 |  | 
11 | CCOCCN1c2c(c(C)c(NS(N)(=O)=O)c(C)c2NC(=O)C(C)(C)C)CC1C (centres unmarked) [Example 54, N-[1-(2-ethoxyethyl)-2,4,6-trimethyl-5-sulfamoylaminoindolin-7-yl]-2,2-dimethylpropanamide hydrochloride] |  | 64.5 | 
12 | CCCCCCCCN1CCc2c(C)c(NC(N)=O)c(C)c(NC(=O)C(C)(C)C)c21.Cl [Example 7, N-(4,6-dimethyl-1-octyl-5-ureidoindolin-7-yl)-2,2-dimethylpropanamide hydrochloride] | 95.7 | 90.9 | 
13 | CCCCCCCCCC(C)(C)C(=O)Nc1c(C)c2c(c(NS(N)(=O)=O)c1C)NCC2.Cl [Example 26, N-(4,6-dimethyl-7-sulfamoylaminoindolin-5-yl)-2,2-dimethylundecanamide hydrochloride] | 95.4 | 75.3 | 
14 | CCCN1c2c(c(C)c(NS(N)(=O)=O)c(C)c2NC(=O)C(C)(C)C)CC1COCC (centres unmarked) [Example 51, N-(2-ethoxymethyl-4,6-dimethyl-1-propyl-5-sulfamoylaminoindolin-7-yl)-2,2-dimethylpropanamide hydrochloride] |  | 86 | 
15 | CCCCCCCCCC(C)(C)C(=O)Nc1c(C)c2c(c(NS(=O)(=O)c3ccc(C)cc3)c1C)NCC2 [Example 25, N-[4,6-dimethyl-7-(p-toluene)sulfonylaminoindolin-5-yl]-2,2-dimethylundecanamide] | 94.3 |  | 89.4
16 | CCCCCCCCS(=O)(=O)Nc1c(C)c(NC(=O)C(C)(C)C)c(C)c2c1NCC2 [Example 29, N-[4,6-dimethyl-7-(1-octanesulfonylamino)indolin-5-yl]-2,2-dimethylpropanamide] | 79.5 |  | 
17 | CSCCN1CCc2c(C)c(NS(N)(=O)=O)c(C)c(NC(=O)C(C)(C)C)c21.Cl [Example 61, N-[4,6-dimethyl-1-(2-methylthioethyl)-5-sulfamoylaminoindolin-7-yl]-2,2-dimethylpropanamide hydrochloride] | 95.4 |  | 
18 | CCCCCCCCN1CCc2c(C)c(NS(=O)(=O)NC(C)=O)c(C)c(NC(=O)C(C)(C)C)c21 [Example 3, N-[5-(N-acetylsulfamoylamino)-4,6-dimethyl-1-octylindolin-7-yl]-2,2-dimethylpropanamide] | 89.3 |  | 
19 | CCCCCCCCCC(C)(C)C(=O)Nc1c(C)c2c(c(NS(C)(=O)=O)c1C)NCC2 [Example 8, N-(7-methanesulfonylamino-4,6-dimethylindolin-5-yl)-2,2-dimethylundecanamide] | 96.3 | 89.2 | 
20 | CCCCCCCCCC(C)(C)C(=O)Nc1c(C)c2c(c(NC(N)=O)c1C)NCC2 [Example 27, N-(4,6-dimethyl-7-ureidoindolin-5-yl)-2,2-dimethylundecanamide] | 78.6 |  | 
21 | CCCN1c2c(c(C)c(NS(N)(=O)=O)c(C)c2NC(=O)C(C)(C)C)CC1CSCC.Cl (centres unmarked) [Example 59, N-(2-ethylthiomethyl-4,6-dimethyl-1-propyl-5-sulfamoylaminoindolin-7-yl)-2,2-dimethylpropanamide hydrochloride] | 98.1 | 92.1 | 
22 | CCCN1c2c(c(C)c(NS(N)(=O)=O)c(C)c2NC(=O)C(C)(C)C)CC1CSC.Cl (centres unmarked) [Example 57, N-(4,6-dimethyl-2-methylthiomethyl-1-propyl-5-sulfamoylaminoindolin-7-yl)-2,2-dimethylpropanamide hydrochloride] | 94.2 | 79.9 | 
23 | CCCCCCCCN1CCc2c(C)c(NS(N)(=O)=O)c(C)c(NC(=O)C(C)(C)C)c21.Cl [Example 6, N-(4,6-dimethyl-1-octyl-5-sulfamoylaminoindolin-7-yl)-2,2-dimethylpropanamide hydrochloride] | 97.4 | 91.2 | 
24 | CCSCCN1CCc2c(C)c(NS(N)(=O)=O)c(C)c(NC(=O)C(C)(C)C)c21.Cl [Example 60, N-[1-(2-ethylthioethyl)-4,6-dimethyl-5-sulfamoylaminoindolin-7-yl]-2,2-dimethylpropanamide hydrochloride] | 97.2 |  | 
25 | CCCCN1CCc2c(C)c(NS(N)(=O)=O)c(C)c(NC(=O)C(C)(C)C)c21.Cl [Example 19, N-(1-butyl-4,6-dimethyl-5-sulfamoylaminoindolin-7-yl)-2,2-dimethylpropanamide hydrochloride] | 93.4 | 73.3 | 
26 | CCOCCN1CCc2c(C)c(NS(N)(=O)=O)c(C)c(NC(=O)C(C)(C)C)c21.Cl [Example 46, N-[1-(2-ethoxyethyl)-4,6-dimethyl-5-sulfamoylaminoindolin-7-yl]-2,2-dimethylpropanamide hydrochloride] | 89.2 | 59.1 | 
